Measurements published in patent US8563052B2, “Method for preparing gintonin, which is a novel glycolipoproetin from panax ginseng, and gintonin, which is a novel glycolipoprotein, prepared by the method” (Konkuk University Industrial Cooperation Corp., priority 2009, dated 2013).

Columns and labels:
[1] = system: gintonin-induced CaCC currents; test: Effects of PLC inhibitor, IP3 receptor antagonist or Ca2+ chelator on crude gintonin-mediated CaCC activation in Xenopus oocytes; type: cell-based, Xenopus laevis; conditions: for crude gintonin-induced CaCC currents, % of the control: in presence of the PLC inhibitor or inactive analog
Experimental: Two-electrode voltage-clamp recordings were obtained from individual oocytes placed in a small Plexiglas net chamber (0.5 ml). Electrophysiological experiments were performed at room temperature using microelectrodes filled with 3 M KCl (resistance of 0.2-0.7 MΩ) and an Oocyte Clamp amplifier (OC-725C; Warner Instrument, Hamden, Conn.), followed by recording CaCC at −80 mV holding potential.
For this, the effect of the IP3 receptor antagonist, membrane permeable 2-aminoethxydiphenyl borate (2-APB), on gintonin-induced CaCC activation was examined.

[2] = system: gintonin-mediated elevation of [Ca^2+]i in mouse EAT cells; test: Effects of active or inactive PLC inhibitors on gintonin-mediated [Ca2+]i elevation in mouse EAT cells; type: cell-based; conditions: for effect on the action of gintonin on [Ca^2+]i: mouse EAT cells, irrespective of the presence of extracellular Ca^2+; for effect on gintonin (100 ng/mL)-mediated elevation of [Ca^2+]i: pretreatment 10 μM, Ca^2+ buffer (1.5 mM Ca^2+) and Ca^2+ free buffer (0.2 mM EGTA), n=4-5/group
Experimental: Data are represented as means ±SEM (n=4-5/group).
[Ca^2+]i was estimated in fura 2-loaded cells in suspension using an RF-5300PC intracellular ion measurement system (Shimadzu Corporation, Japan). The fura 2-AM loaded cells were diluted with an experimental medium to a final density of 2˜4×10^6 cells/mL and transferred to polystyrene cuvettes (Elkay Ultra-VU). The cells were stirred using Teflon-coated magnets, and the cuvette housing was thermostatically controlled at 37° C. The excitation wavelengths were alternated between 340 and 380 nm under computer control. Emission was detected at 510 nm. Excitation and emission slit widths were 5 nm. Background correction was performed as described by Jorgensen et al. Digitonin and EGTA were used as concentration adjustment reagents to make a condition in which fura 2 completely combines with and disassociates from Ca^2+.

NCCOB(c1ccccc1)c1ccccc1 [2-APB, 2-aminoethxydiphenyl borate]
inward CaCC currents induced by gintonin after addition of 2-APB ([1]; P<0.01 vs control current): 0.03±0.01 μA | effect on gintonin-induced inward CaCC currents ([1]; addition of 2-APB): almost completely abrogated

CC(=O)OCOC(=O)CN(CC(=O)OCOC(C)=O)c1ccccc1OCCOc1ccccc1N(CC(=O)OCOC(C)=O)CC(=O)OCOC(C)=O [BAPTA-AM, 1,2-bis-(2-aminophenoxy)ethane-N,N,N′,N′-tetraacetic acid acetoxymethyl ester]
effect on gintonin-mediated CaCC activation ([1]; 10 μM final): almost extinguished

COc1ccc2c(c1)CC[C@@H]1[C@@H]2CC[C@]2(C)[C@@H](NCCCCCCN3C(=O)C=CC3=O)CC[C@@H]12 [U-73122]
effect on the action of gintonin on [Ca^2+]i [2]: almost abrogate | effect on gintonin (100 ng/mL)-mediated elevation of [Ca^2+]i [2]: blocked | crude gintonin-induced CaCC currents, % of the control [1]: 3.9±0.3%

COc1ccc2c(c1)CC[C@@H]1[C@@H]2CC[C@]2(C)[C@@H](NCCCCCCN3C(=O)CCC3=O)CC[C@@H]12 [U-73343]
effect on the action of gintonin on [Ca^2+]i [2]: not | effect on gintonin (100 ng/mL)-mediated elevation of [Ca^2+]i [2]: not | crude gintonin-induced CaCC currents, % of the control [1]: 97.2±0.2%
